Read-outs that look alike come from different tables or passages of the source.
What was measured:
[1] = Rat oral administration test (plasma concentration via FXIa inhibitory activity); type: in vivo; conditions: fasted male Crj:CD(SD)IGS rats, single 3 mg/kg p.o., 20% wellsolve, read-out: rat plasma concentration after po administration Cmax at 3 mpk
Protocol: Each compound of the present invention in a solution of 20% wellsolve (celeste) was given to fasted male Crj:CD(SD)IGS rats as a single 3 mg/kg, p.o. dose by gavage. Blood samples were drawn from jugular vein into syringes containing 3.2% sodium citrate (the volume ratio of blood to anticoagulant=9:1) after oral administration at 0.5, 1, 2, 4 and 6 hours. Plasma was harvested by centrifugation and stored at −20° C. until measurement of plasma concentration.
To measure plasma concentrations of the compounds of the present invention, plasma samples were deproteinized with acetonitrile, followed by evaporation of the acetonitrile to dryness. The residual was then re-dissolved with DMSO and its FXIa inhibitory activity was measured by enzyme assay described above. Plasma concentrations of each compound of the present invention were quantitated by generating a standard curve of known compound concentration in rat plasma.

[2] = biological target: Human Factor XIa (Homo sapiens (Human), UniProt P03951); assay: Factor XIa enzyme activity (chromogenic substrate S-2366); type: biochemical; conditions: read-out: In vitro FXIa inhibitory activity IC50
Human Factor XIa, sequence (P03951 388-625): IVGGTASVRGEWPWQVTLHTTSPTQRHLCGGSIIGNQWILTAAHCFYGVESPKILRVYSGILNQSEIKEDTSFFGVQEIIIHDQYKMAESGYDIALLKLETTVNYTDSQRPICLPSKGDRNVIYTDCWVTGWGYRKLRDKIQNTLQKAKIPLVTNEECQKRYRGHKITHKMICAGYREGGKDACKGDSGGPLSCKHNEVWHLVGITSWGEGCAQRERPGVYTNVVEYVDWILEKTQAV
Human Factor XIa, sequence (P03951 19-387 partner): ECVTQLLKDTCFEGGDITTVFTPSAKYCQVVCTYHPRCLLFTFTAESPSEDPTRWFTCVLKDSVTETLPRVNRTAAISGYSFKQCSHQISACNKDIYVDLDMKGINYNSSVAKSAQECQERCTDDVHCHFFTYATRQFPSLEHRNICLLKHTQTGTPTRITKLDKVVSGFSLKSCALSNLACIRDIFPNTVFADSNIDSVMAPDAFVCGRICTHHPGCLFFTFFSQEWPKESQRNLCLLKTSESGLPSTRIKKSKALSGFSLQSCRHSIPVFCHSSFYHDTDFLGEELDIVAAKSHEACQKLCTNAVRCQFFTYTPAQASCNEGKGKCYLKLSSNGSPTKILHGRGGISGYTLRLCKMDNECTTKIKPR
Protocol: Inhibitory activities of compounds of the present invention against factor XIa, Xa, XIIa, IXa, VIIa, plasma kallikrein or thrombin were evaluated using appropriate purified proteases and synthetic substrates. The rate of hydrolysis of the chromogenic substrate by the relevant protease was continuously measured at 405 nm.
Inhibitory activity against each enzyme was calculated as % inhibition using the equation described below. % Inhibition=[[(rate without compound)−(rate with compound)](rate without compound)]×100%. Each half maximal inhibitory concentration (IC50) value was determined by plotting the concentration of compound of the invention against the % inhibition. (1-1) Factor XIa Enzyme Activity
Human Factor XIa (Haematologic Technologies Inc.) activity was measured at an enzyme concentration of 0.1 U/mL in 150 mM NaCl, 5 mM KCl, 1 mg/mL PEG6000, 50 mM HEPES-NaOH (pH7.4) with 300 μM S-2366 (pyroGlu-Pro-Arg-pNA, Chromogenix).

[3] = Pharmacokinetic (PK) study of the compound which has an ester group(s) in rat; type: in vivo; conditions: plasma, po, fasted male Crj:CD(SD) rats, single 3 mg/kg p.o., analyte: administered ester compound, read-out: rat plasma concentration of ester compound after po administration Cmax at 3mpk
Protocol: Each compound of the present invention in a solution of 20% wellsolve (celeste) was given to fasted male Crj:CD(SD) rats as a single 3 mg/kg, p.o. dose by gavage. Blood samples were drawn from jugular vein into syringes treated with heparin-diisopropyl fluorophosphate mixture (500:1) at 0.5, 1, 3, 7 hours after oral administration. Plasma was obtained by centrifugation and stored at −20° C. until measurement of plasma concentration.
To measure plasma concentrations of the compounds of the present invention, plasma samples were deproteinized with acetonitrile, followed by evaporation of the acetonitrile to dryness. Then the sample was reconstituted in the mobile phase and analyzed by LC/MS/MS. An analytical column (Shim-pack XR-ODS II, 2.0 mm×75 mm, 2.2 μm) and mobile phase (0.1% formic acid in water and 0.1% formic acid in acetonitrile, flow rate of 0.5 mL/min) were used. The system was used in multiple reaction monitoring (MRM) mode with positive ion detection.

[4] = Table 2, comparison with comparative compounds
[5] = human Factor XIa 0.1 U/mL, 300 μM S-2366, pH7.4

Structure (SMILES)	Cmax [1]	IC50 [2, 4]	IC50 [2, 5]	Cmax [3]
COC(=O)Nc1ccc(-c2cnc(C3CCc4nc(-c5cc(Cl)ccc5-n5cnnn5)cc(=O)n43)[nH]2)cc1 (centres unmarked) [Example 41, methyl[4-(2-{2-[5-chloro-2-(1H-tetrazol-1-yl)phenyl]-4-oxo-4,6,7,8-tetrahydropyrrolo[1,2-a]pyrimidin-6-yl}-1H-imidazol-5-yl)phenyl]carbamate]	2280 nM	6.5 nM	6.5 nM	–
COC(=O)Nc1ccc(-c2[nH]c([C@H](Cc3ccccc3)NC(=O)CCc3cc(Cl)ccc3-n3cnnn3)nc2Cl)cc1 [Comp Ex 1, reference compound]	15 nM	3.6 nM	–	–
COC(=O)Nc1ccc(-c2[nH]c([C@H](C)NC(=O)/C=C/c3cc(Cl)ccc3-n3cnnn3)nc2Cl)cc1 [Comp Ex 2, reference compound]	25 nM	–	–	–
CCOC(=O)c1ccc(-c2cnc([C@@H]3CCc4cc(-c5cc(Cl)ccc5-n5cnnn5)cc(=O)n43)[nH]2)s1 [Example 401, ethyl 5-(2-{(3S)-7-[5-chloro-2-(1H-tetrazol-1-yl)phenyl]-5-oxo-1,2,3,5-tetrahydro-3-indolizinyl}-1H-imidazol-5-yl)-2-thiophenecarboxylate]	–	–	–	960 nM

Next, values leading:

Cmax [1]	IC50 [2, 4]	IC50 [2, 5]	Cmax [3]	Structure (SMILES)
88 nM	–	–	–	COC(=O)Nc1ccc(-c2[nH]c(CNC(=O)/C=C/c3cc(Cl)ccc3-n3cnnn3)nc2Cl)cc1 [Comp Ex 3, reference compound]
1250 nM	15 nM	15 nM	–	COC(=O)Nc1ccc(-c2[nH]c(C3CCc4cc(-c5cc(Cl)ccc5-n5cnnn5)cc(=O)n43)nc2Cl)cc1 (centres unmarked) [Example 45, methyl[4-(4-chloro-2-{7-[5-chloro-2-(1H-tetrazol-1-yl)phenyl]-5-oxo-1,2,3,5-tetrahydro-3-indolizinyl}-1H-imidazol-5-yl)phenyl]carbamate]
510 nM	2.4 nM	2.4 nM	–	COC(=O)Nc1ccc(-c2[nH]c(Cn3ccc(-c4cc(Cl)ccc4-n4cnnn4)cc3=O)nc2Cl)cc1 [Example 57, methyl{4-[5-chloro-2-({4-[5-chloro-2-(1H-tetrazol-1-yl)phenyl]-2-oxo-1(2H)-pyridinyl}methyl)-1H-imidazol-4-yl]phenyl}carbamate]

From patent US9732085B2, “Pyridinone and pyrimidinone derivatives as factor Xia” (ONO PHARMACEUTICAL CO., LTD., priority 2011, dated 2017)
